System: not listed separately
Assay: acute toxicity in mouse
Settings: in vivo, po, method of Litchfield and Wilcoxon

SMILES	LD50 [mg/kg]
COC[C@H]1CN(c2ccc(OCC[C@@H](C)O)cc2)C(=O)O1 [MD370120, 3-[4-(3(R)-hydroxybutoxy)phenyl]-5(R)-methoxymethyl-2-oxazolidinone]	1400
COC[C@H]1CN(c2ccc(OCC[C@@H](O)C(F)(F)F)cc2)C(=O)O1 [MD370503, 3-[4-(4,4,4-trifluoro-3(R)-hydroxybutoxy)phenyl]-5(R)-methoxymethyl-2-oxazolidinone]	2500

System: 5-HTP potentialisation
Assay: 5-HTP potentialisation assay in rat (antidepressive activity)
Format: in vivo
Settings: po, compound given orally, 5-HTP intra-peritoneal 1 h after the first treatment, read-out: ED50 (dose which brings about in 50% of the animals generalized shakings or stereotypies consecutive to 5-HTP)
Method: Int. Pharmacodyn. (1982), 259, 194-221. The dose of product which, when given orally, brings about in 50% of the animals (ED50) the appearance of generalized shakings or of stereotypies (trinklings, shakes of head) consecutive to the administration by intra-peritoneal route 1 h after the first treatment of 5-hydroxy-tryptophane (5-HTP) is determined in rat.

SMILES	ED50 [mg/kg]
COC[C@H]1CN(c2ccc(OCC[C@@H](C)O)cc2)C(=O)O1 [MD370120, 3-[4-(3(R)-hydroxybutoxy)phenyl]-5(R)-methoxymethyl-2-oxazolidinone]	0.83
COC[C@H]1CN(c2ccc(OCC[C@H](O)C(F)(F)F)cc2)C(=O)O1 [MD370504, 3-[4-(4,4,4-trifluoro-3(S)-hydroxybutoxy)phenyl]-5(R)-methoxymethyl-2-oxazolidinone]	1.8
COCC1CN(c2ccc(OCCC(C)O)cc2)C(=O)O1 (racemic) [MD370047, 3-[4-(3-hydroxybutoxy)phenyl]-5-methoxymethyl-2-oxazolidinone]	1.9
COC[C@H]1CN(c2ccc(CCC[C@@H](C)O)cc2)C(=O)O1 [MD230238, 3-[4-(4(R)-hydroxypentyl)phenyl]-5(R)-methoxymethyl-2-oxazolidinone]	1.9
COC[C@H]1CN(c2ccc(OCC[C@@H](O)C(F)(F)F)cc2)C(=O)O1 [MD370503, 3-[4-(4,4,4-trifluoro-3(R)-hydroxybutoxy)phenyl]-5(R)-methoxymethyl-2-oxazolidinone]	0.14
CCOC[C@H]1CN(c2ccc(OCC[C@@H](O)C(F)(F)F)cc2)C(=O)O1 [MD230197]	2.4
COC[C@H]1CN(c2ccc(OCC3CCCC3O)cc2)C(=O)O1 (stereo partly drawn) [MD230201, 3-[4-(1-hydroxy-2-cyclopentylmethoxy)phenyl]-5(R)-methoxymethyl-2-oxazolidinone]	1.6
COC[C@H]1CN(c2ccc(CCCC(C)O)cc2)C(=O)O1 (stereo partly drawn) [MD230082, 3-[4-(4-hydroxypentyl)phenyl]-5(R)-methoxymethyl-2-oxazolidinone]	1.1
COCC1CN(c2ccc(OCCC(O)C(F)(F)F)cc2)C(=O)O1 (racemic) [MD370167, 3-[4-(4,4,4-trifluoro-3-hydroxybutoxy)phenyl]-5-methoxymethyl-2-oxazolidinone]	1.1
COC[C@H]1CN(c2ccc(OCC[C@H](C)O)cc2)C(=O)O1 [MD370122, 3-[4-(3(S)-hydroxybutoxy)phenyl]-5(R)-methoxymethyl-2-oxazolidinone]	0.68
Cc1cccc(N2CC(CO)OC2=O)c1 (stereo not shown) [TOLOXATONE, reference compound]	30

From patent publication US5036091A, “3-Aryloxazolidinone derivatives, process for their preparation and their use in therapy” (Delalande S.A., priority 1989, dated 1991)
